Series [1] relates to E. coli (ATCC 8739) / C. albicans (ATCC 10231). Put plainly: MIC of permeabilizer co-dosants with and without Tgase variant. The class given is cell-based. Conditions: for Co-Dosant MIC, with Tgase variant: with Tgase variant A3 (SEQ ID NO: 4): 12.5 ppm with polymyxin B, 200 ppm with chlorhexidine and with the mixture. Here is the method: E. coli (ATCC 8739) and C. albicans (ATCC 10231) were acquired from the American Type Culture Collection (ATCC) (Manassas, VA) and maintained as −80° C. frozen glycerol stocks.
The following day, the cell density of the saturated cultures was calculated using OD600 and cultures were diluted to 104 to 10^6 CFU/mL in sterile Mueller Hinton broth to generate the inoculum, and 100 μL of the inoculum was combined with 100 μL of serially diluted Tgase variant A3 (SEQ ID NO: 4) at a range of 0.0001-0.05 weight percent. Growth curves were measured by OD600 on a BioTek® Synergy Plate Reader. All test conditions were performed in triplicate. MIC was determined to be […] (0.005% w/v) against E. coli for the enzyme described in SEQ ID NO: 4 using OD600.
For MIC determination of yeast cultures, C. albicans (ATCC 10231) was grown overnight (24 hours) in Sabouraud Dextrose broth at 30° C. The following day, the cell density of the saturated cultures was calculated using OD600 and cultures were diluted to 104 to 10^6 CFU/mL in sterile Sabouraud Dextrose broth media to generate the inoculum, and 100 μL of the inoculum was combined with 100 μL of serially diluted Tgase variant at a range of 0.0001-0.05 weight percent. The cultures were grown overnight at 30° C. and growth curves were measured by OD600 on a BioTek® Synergy Plate Reader. All test conditions were performed in triplicate. MIC was determined to be […] (0.005% w/v) against C. albicans for the enzyme described in SEQ ID NO: 4 using OD600.
Aseptilase activities of Tgase variant A3 (SEQ ID NO: 4) in combination with each of the three permeabilizer co-dosants, polymyxin B, chlorhexidine, and a 10000:4000:1 mixture by weight of sodium hexametaphosphate, phytic acid and chlorhexidine, were tested. […] The experiments were performed as described in Example 5. The co-dosants were added into Tgase variant A3 (SEQ ID NO: 4) solutions at concentrations of 0.125 g/L, 0.05 g/L, and 350 mM, respectively. The results are shown in Table 12 with Tgase concentrations reported within the table at the best MIC.

For another series, the system named is E. coli. Put plainly: Preservative efficacy in body lotion against E. coli. It is filed as cell-based. The settings on record: 0.005% in combinations, phenoxyethanol 0.7% alone, 0.3% combined, caprylyl glycol 0.7% alone, 0.35% combined, sodium benzoate 0.5% + EDTA 0.5%, 2% 2:1 propanediol:hexanediol, 0.5% CHA solution. On the procedure:
(§1) A vessel was filled with deionized water, placed under an overhead stirrer set to moderate mixing, and heated to 75-80° C. Glycerin was added to 2% and mixed until dissolved, followed by xanthan gum to 0.2%. At 75-80° C., cetearyl glucoside and cetearyl alcohol were added to 4% and 3%. Once both had melted fully, milk thistle seed oil was added and the batch was homogenized with a Silverson homogenizer with the standard emulsion screen until the batch had turned milky white. The batch was removed from heat and returned to propellor mixing with decreased speed to allow the emulsion to set up. At 40° C., pH was adjusted to pH 5.5-6.0 using citric acid or sodium hydroxide and split into several portions and allowed to finish cooling. Once cooled to room temperature, one portion of the body lotion was left unpreserved and the remaining portions were preserved with one or more substances selected from aseptilase, phenoxyethanol, caprylyl glycol, sodium benzoate, and EDTA. All samples were inoculated with E. coli (10^6 CFU/mL) and C. albicans (10^5 CFU/mL) and plated after 2 and 7 days.

The test system of a further series is C. albicans. Briefly: Preservative efficacy in body lotion against C. albicans. The class given is cell-based. Conditions: 0.005% in combinations, phenoxyethanol 0.7% alone, 0.3% combined, caprylyl glycol 0.7% alone, 0.35% combined, sodium benzoate 0.5% + EDTA 0.5%, 2% 2:1 propanediol:hexanediol, 0.5% CHA solution. On the procedure: as §1
Series [2] in a line: Thermal stability at 55 °C, specific activity by colorimetric hydroxamate assay. The class given is biochemical. Here is the method:
Tgase activity was measured herein using a colorimetric hydroxamate activity assay (Folk and Cole (1965) J Biol Chemistry 240 (7): 2951-2960). Briefly, the hydroxamate assay uses N-benzyloxycarbonyl-L-glutaminyl-glycine (ZQG) as a low molecular weight amine acceptor substrate and hydroxylamine as an amine donor. In the presence of catalytically active Tgase, the hydroxylamine is incorporated to form Z-glutamylhydroxamate-glycine, which develops a colored complex with iron (III), detectable at 525 nm after incubation at 37° C. for 5-200 minutes. The calibration was performed using L-glutamic acid gamma-monohydroxamate (Millipore® Sigma®) as a standard. One unit of Tgase was defined as the amount of enzyme that catalyzes formation of 1 μmol of the peptide derivative of gamma-glutamylhydroxylamine per minute. Activity of Tgase variants is depicted in Tables 2-4.
A commercially available wild-type Tgase (Ajinimoto®, Activa® TI formulation) formulated at 0.75-1.0% enzyme in maltodextrin was purchased from Amazon.com and dissolved in water at 20% w/v. The concentration of the mature Tgase in the solution was confirmed by high-performance liquid chromatography (HPLC) and the sample was further diluted to 0.1 g/L of enzyme. Following dilution, the enzyme was subjected to the hydroxamate assay as described in Example 4 to determine specific activity. The specific activity of the commercial wild-type Tgase compared to Tgase variant A3 (SEQ ID NO: 4), further comprising an N-terminal methionine, is shown in FIG. 1.
The thermal stability of Tgase variant A3 (SEQ ID NO: 4) compared to the commercial wild-type Tgase was evaluated by incubating the samples at 55° C. and testing the enzyme concentration and activity at various timepoints. Six timepoints were tested: 0, 30, 60, 120, 240, and 480 minutes.
The enzyme concentration was measured by HPLC. The samples were diluted 10-fold in 50 mM phosphate pH 7.4, 100 mM NaCl. The samples were tested by reverse phase using a Zorbax SB300-C8 column with 0.1% trifluoroacetic acid in water (MPA) and 0.08% trifluoroacetic acid in acetonitrile (MPB).
The activity was determined using the colorimetric activity assay described in Example 4A. The specific activity (U/mg) of the samples was calculated using the concentration of each sample as determined per Example 4D (results shown in Table 10).

The subject of the next series is collagen. Briefly: Collagen-modifying activity with FITC-gelatin or FITC-cadaverine. It is filed as biochemical. The settings on record: 16 hours, pH 7.4. Here is the method: Substrate specificity for collagen of Tgase variant A3 (SEQ ID NO: 4) was tested by allowing the variant to react with either fluorescein-labeled gelatin (FITC-Gelatin, to test protein-protein cross-linking) or fluorescein-labeled cadaverine (FITC-cadaverine, to test protein-small molecule cross-linking) with a collagen layer deposited on the bottom of a 96-well microtiter plate. Tgase variant A3 (SEQ ID NO: 4) and wild-type Tgase were diluted to 4-800 ppm in 50 mM phosphate buffer, pH 7.4, supplemented with 100 mM NaCl in 96-well collagen coated microtiter plates. Either FITC-gelatin or FITC-cadaverine was added to 1 g/L (final volume 100 μL) and the plates were sealed and incubated at either 37° C. or 50° C. for 16 hours. The reaction supernatants were carefully removed and then 200 μL 50 mM [COMPOUND LEFT OUT] mM NaCl, pH 7.4 buffer was added gently against the side of each well then carefully removed. This wash step was repeated. The plate-bound material was extracted by vigorously pipetting 100 μL dimethylsulfoxide into each well, then the extract was transferred into a black bottom 96-well plate. The fluorescence of the samples was measured at an excitation wavelength of 487 nm and an emission wavelength of 528 nm. The fluorescence signal is assumed to be proportionate to the concentration of fluorescent product extracted from the surface of the plate. For both FITC-gelatin and FITC-cadaverine, the fluorescence response per concentration enzyme was higher for wells treated with Tgase variant A3 (SEQ ID NO: 4) than for wells treated with wild-type Tgase (Table 11).

With `[H]/N=C(\N/C(=N/[H])NCCCCCCNC(=N)NC(=N)Nc1ccc(Cl)cc1)Nc1ccc(Cl)cc1` [Chlorhexidine, reference compound], the MIC in series [1] (read-out: Co-Dosant MIC, without Tgase variant) came to 2 µg/mL. Besides, the “Co-Dosant MIC, with Tgase variant” value in series [1] was 1 ppm.
In the case of `CCCCCCC(O)CO` (stereo not shown) [caprylyl glycol], the “Preservative efficacy against E. coli, log reduction” value in the series on E. coli (day 2, aseptilase 0.01% alone) is 5.00 log reduction in CFU/mL; in the series on E. coli (day 7, aseptilase 0.01% alone), 5.00 log reduction in CFU/mL. In addition, the “Preservative efficacy against C. albicans, log reduction” value in the series with C. albicans (day 2, aseptilase 0.01% alone) came out at 1.18 log reduction in CFU/mL; in the series on C. albicans (day 7, aseptilase 0.01% alone) it was 2.70 log reduction in CFU/mL.
Take `OCCOc1ccccc1` [phenoxyethanol]: the “Preservative efficacy against E. coli, log reduction” value in the series on E. coli (day 2, aseptilase 0.01% alone) is given as 2.15 log reduction in CFU/mL; in the series with E. coli (day 7, aseptilase 0.01% alone), 3.00 log reduction in CFU/mL. Moreover, the “Preservative efficacy against C. albicans, log reduction” value with C. albicans (day 2, aseptilase 0.01% alone) is given as 0.68 log reduction in CFU/mL; in the series on C. albicans (day 7, aseptilase 0.01% alone) it was 1.73 log reduction in CFU/mL.
Polymyxin B [reference compound]: the “Co-Dosant MIC, with Tgase variant” value in series [1] is 0.156 ppm. Further, the “Co-Dosant MIC, without Tgase variant” value in series [1] (without Tgase variant) is 0.625 ppm.

B1: Wild-type Tgase: commercially available wild-type Tgase (Ajinimoto, Activa TI formulation) formulated at 0.75-1.0% enzyme in maltodextrin (protein, UniProt P81453 77-407, looked up)
Protein-glutamine …: DSDDRVTPPAEPLDRMPDPYRPSYGRAETVVNNYIRKWQQVYSHRDGRKQQMTEEQREWLSYGCVGVTWVNSGQYPTNRLAFASFDEDRFKNELKNGRPRSGETRAEFEGRVAKESFDEEKGFQRAREVASVMNRALENAHDESAYLDNLKKELANGNDALRNEDARSPFYSALRNTPSFKERNGGNHDPSRMKAVIYSKHFWSGQDRSSSADKRKYGDPDAFRPAPGTGLVDMSRDRNIPRSPTSPGEGFVNFDYGWFGAQTEADADKTVWTHGNHYHAPNGSLGAMHVYESKFRNWSEGYSDFDRGAYVITFIPKSWNTAPDKVKQGWP
modifications: formulated in maltodextrin
In the case of B1, the Specific activity was found to be 23.3 U/mg in series [2] (timepoint 0 min); 31.0 U/mg in series [2] (timepoint 30 min); 27.0 U/mg in series [2] (timepoint 60 min); 29.3 U/mg in series [2] (timepoint 120 min); 36.8 U/mg in series [2] (timepoint 240 min); 21.2 U/mg in series [2] (timepoint 480 min). Further, the “Fluorescence/[Enzyme]” value with collagen (FITC-Cadaverine, 37 °C) is 6.7 RFU/ppm; in the series on collagen (FITC-Cadaverine, 50 °C), 4.4 RFU/ppm; with collagen (FITC-Gelatin, 37 °C) it was 4.6 RFU/ppm; in the series on collagen (FITC-Gelatin, 50 °C), 6.8 RFU/ppm.

The values are drawn from US20260327578A1, “TRANSGLUTAMINASES AND USES THEREOF” (CURIE CO. INC., priority 2023, published 2026).
